In patent US20260217767A1, “NOVEL A4B7 THIOETHER PEPTIDE DIMER ANTAGONISTS” (Protagonist Therapeutics, Inc., priority 2014, published 2026) one finds IC50 and half-life data, which are given here for 8 molecules.

Data set [1] relates to CD4+/CD45RO+ memory T cells. The data set can be described thus: PBMC Memory T Cell Adhesion Assay. It counts as cell-based, human. The conditions noted are these: thioether monomer peptides, Table 6. As for the experimental part: PBMC Memory T Cell Adhesion Assay
Fresh CD4+/CD45RO+ memory T cells were isolated from human peripheral blood mononuclear cell (PBMC) donors by Aragen Bioscience Inc. (Morgan Hill, CA). The assay plate was prepared using IgG Fc capture antibody (donkey anti human) immobilized at 500 ng/well in 50 mM sodium bicarbonate buffer, pH 9.5, ON, 4 C onto a Greiner Fluotrac plate (100 ul per well). The plate was rinsed two time with Blocking Buffer (25 mM Tris HCl, pH7.5, 150 mM NaCl, 1.5% BSA, 0.05% Tween), and blocked with Blocking Buffer for 2 hours at 37 C or 5 hours at RT using 200 ul per well. The Blocking Buffer was removed and either MAdCAM-1 or VCAM-1 at 400 ng/well in Blocking Buffer was added and the plate incubated overnight at 4 C (100 ul per well). The plate was washed two times with Blocking Buffer, and rinsed once with 200 ul Binding Media (DMEM phenol red free, 10 mM HEPES, 1×Na pyruvate, 1× Glutamine, and supplemented with 1 mM MnC12 prior to use). To prepare cells, approximately 25 million CD4+/CD45RO+ memory T cells were counted by trypan blue exclusion using a haemocytometer to determine viability and cell count. The cells were transferred to a 50 ml conical tube, and centrifuged at 1200 rpm for 10 minute. The media was aspirated and the cell pellet resuspended in 15 ml Binding Media. The cells were centrifuged again and resuspended in the appropriate amount of Binding Media to be used for assays (50 ul of cells per well at 2× the final density). To each well, and equal volume (50 ul) of test compound was added and the plate was incubated for 1.5 hours at 37 C, 5% CO2. Each well was rinsed 3× with 150 ul per well of Binding Media. […] The plate was incubated at 37 C, 5% CO2, for 45 minutes. The plate was protected from light by using black adhesive seals. Fluorescence intensity was measured using a Molecular Devices Gemini EM Fluorescent Plate Reader (Ex 485/Em530, Bottom Read, Reading Sensitivity=20). IC50 curves are generated using Graph Pad Prism and the curves analyzed using analyzed using a non-linear regression (four parameters) algorithm. The log (concentration) versus RFU (Ex485/Em530) was plotted to determine IC50 values.

Data set [2] can be described thus: Simulated Gastric Fluid (SGF) Stability Assay. It counts as in vitro ADME. The conditions noted are these: pig, pH 2, 37° C., dimers, Table 7; for half-life at 20 μM: simulated gastric fluid (SGF) with porcine pepsin; for half-life: simulated gastric fluid (with porcine pepsin). As for the experimental part: Simulated Gastric Fluid (SGF) Stability Assays
Studies were carried out in simulated gastric fluid (SGF) to evaluate intestinal stability of the peptide molecules of the instant invention. SGF was prepared by adding 20 mg NaCl, 32 mg porcine pepsin (MP Biochemicals, catalog 02102599), and 70 μl HCl to 10 ml water (final pH=2). Aliquots of SGF (0.5 ml each) were pre-warmed at 37° C. To start the reaction, 1 μl of peptide stock solution (10 mM in DMSO) was added to 0.5 ml SGF and thoroughly mixed such that the final peptide concentration was 20 μM. The reactions were incubated at 37° C. with gentle shaking. At each time point (0, 15, 30, 60 min) 50 μl aliquots were removed and added to 200 μl acetonitrile containing 0.1% formic acid to quench the reaction. Samples are stored at 4° C. until the end of the experiment and centrifuged at 10,000 rpm for 5 minutes. Aliquots of the supernatant were removed, diluted 1:1 into distilled water containing internal standard, and analyzed by LCMS/MS. Percent remaining at each timepoint was calculated based on the peak area response ratio of test to compound to internal standard. Time 0 was set to 100%, and all later timepoints were calculated relative to time 0. Half-lives were calculated by fitting to a first-order exponential decay equation using GraphPad.

*1 amine or outer side, *2 acyl side, *3 side chain or, on linkers, in order; H or OH if unused. Where a SMILES comes first, the peptide text is derived from it. Bridges are numbered along the chain shown (N, C = ends). Roman numbers before positions name the chains, in order. [ ]: non-standard residue; d: D form. Phe(4-tBu) = CC(C)(C)c1ccc(C[C@H](N)C(=O)O)cc1; Bip = N[C@@H](Cc1ccc(-c2ccccc2)cc1)C(=O)O; Diglycolyl = O=C(COCC(=O)[*:2])[*:1]; NMeR = CN[C@@H](CCCNC(=N)N)C(=O)O; Tic = O=C(O)[C@@H]1Cc2ccccc2CN1; β3hE = N[C@@H](CCC(=O)O)CC(=O)O; X1 = O=C(c1ccccc1C[*:2])[*:1]; Pen = CC(C)(S)[C@H](N)C(=O)O

In general, IC50 refers to the concentration that inhibits the measured activity by half. Low readings indicate greater potency, high ones weaker potency. Usually half-life stands for the time needed for the level to fall by half in the phase considered. The low end stands for rapid decline, the high end for slow decline.

As to `CC(C)C[C@@H]1NC(=O)[C@H]([C@@H](C)O)NC(=O)[C@H](CC(=O)O)NC(=O)[C@H](CO)NC(=O)[C@H](CCCNC(=N)N)N(C)C(=O)c2ccccc2CSC(C)(C)[C@@H](C(=O)N[C@@H](Cc2c[nH]c3ccccc23)C(=O)N[C@H](CCC(=O)O)C(=O)N[C@@H](Cc2ccccc2)C(N)=O)NC1=O` [compound 101] (HELM PEPTIDE1{[meR].S.D.T.L.[Pen].W.[dE].F.[am]}|CHEM1{[O=C(c1ccccc1C[*:2])[*:1]]}$PEPTIDE1,CHEM1,1:R1-1:R1|PEPTIDE1,CHEM1,6:R3-1:R2$$$V2.0), in data set [1], the IC50 lay within 100 to 1000 nM.

Take `CC(C)C[C@@H]1NC(=O)[C@H]([C@@H](C)O)NC(=O)[C@H](CC(=O)O)NC(=O)[C@H](CO)NC(=O)[C@H](CCCNC(=N)N)N(C)C(=O)c2ccccc2CSC(C)(C)[C@@H](C(=O)N[C@@H](Cc2ccc(-c3ccccc3)cc2)C(=O)N[C@@H](CCC(=O)O)CC(N)=O)NC1=O` [compound 133] ([NMeR]SDTL[Pen][Bip][β3hE]-NH2; linker N-6 via X1): in data set [1], the IC50 fell in the range of 100 to 1000 nM.

For `CC(C)C[C@@H]1NC(=O)[C@H]([C@@H](C)O)NC(=O)[C@H](CC(=O)O)NC(=O)[C@H](CO)NC(=O)[C@H](CCCNC(=N)N)N(C)C(=O)c2ccccc2CSC(C)(C)[C@@H](C(=O)N[C@@H](Cc2ccc(C(C)(C)C)cc2)C(=O)N[C@@H](CCC(=O)O)CC(N)=O)NC1=O` [compound 134] ([NMeR]SDTL[Pen][Phe(4-tBu)][β3hE]-NH2; linker N-6 via X1), the IC50 in data set [1] fell in the range of 25 to 100 nM.

Molecule `CC(C)C[C@@H]1NC(=O)[C@H]([C@@H](C)O)NC(=O)[C@H](CC(=O)O)NC(=O)[C@H](CO)NC(=O)[C@H](CCCNC(=N)N)N(C)C(=O)c2ccccc2CSC(C)(C)[C@@H](C(=O)N[C@@H](Cc2ccc(-c3ccccc3)cc2)C(=O)N[C@H](CCC(=O)O)C(=O)N[C@H](CCCCN)C(N)=O)NC1=O` [compound 178] (HELM PEPTIDE1{[meR].S.D.T.L.[Pen].[O=C([C@H](Cc1ccc(-c2ccccc2)cc1)N[*:1])[*:2]].[dE].[dK].[am]}|CHEM1{[O=C(c1ccccc1C[*:2])[*:1]]}$PEPTIDE1,CHEM1,1:R1-1:R1|PEPTIDE1,CHEM1,6:R3-1:R2$$$V2.0) returned a half-life at 20 μM in data set [2] of over 3 h.

As for `CC(C)C[C@@H]1NC(=O)[C@H]([C@@H](C)O)NC(=O)[C@H](CC(=O)O)NC(=O)[C@H](CO)NC(=O)[C@H](CCCNC(=N)N)N(C)C(=O)c2ccccc2CSC[C@@H](C(=O)N2Cc3ccccc3C[C@H]2C(=O)N[C@H](CCC(=O)O)C(=O)N[C@H](CCCCNC(=O)COCC(=O)NCCCC[C@@H](NC(=O)[C@@H](CCC(=O)O)NC(=O)[C@@H]2Cc3ccccc3CN2C(=O)[C@@H]2CSCc3ccccc3C(=O)N(C)[C@@H](CCCNC(=N)N)C(=O)N[C@@H](CO)C(=O)N[C@@H](CC(=O)O)C(=O)N[C@@H]([C@@H](C)O)C(=O)N[C@@H](CC(C)C)C(=O)N2)C(N)=O)C(N)=O)NC1=O` [compound 184] (I: [NMeR]SDTLC[Tic][dE][dK]-NH2 / II: [NMeR]SDTLC[Tic][dE][dK]-NH2; linker I:9-II:9 via Diglycolyl; linker I:N-I:6, II:N-II:6 via X1), the half-life at 20 μM in data set [2] was over 3 h.

Molecule `CC(C)C[C@@H]1NC(=O)[C@H]([C@@H](C)O)NC(=O)[C@H](CC(=O)O)NC(=O)[C@H](CO)NC(=O)[C@H](CCCNC(=N)N)N(C)C(=O)c2ccccc2CSC(C)(C)[C@@H](C(=O)N[C@@H](Cc2ccccc2)C(=O)N[C@H](CCC(=O)O)C(=O)N[C@H](CCCCNC(=O)COCC(=O)NCCCC[C@@H](NC(=O)[C@@H](CCC(=O)O)NC(=O)[C@H](Cc2ccccc2)NC(=O)[C@H]2NC(=O)[C@H](CC(C)C)NC(=O)[C@H]([C@@H](C)O)NC(=O)[C@H](CC(=O)O)NC(=O)[C@H](CO)NC(=O)[C@H](CCCNC(=N)N)N(C)C(=O)c3ccccc3CSC2(C)C)C(=O)O)C(=O)O)NC1=O` [compound 204] (I: [NMeR]SDTL[Pen]F[dE][dK]-OH / II: [NMeR]SDTL[Pen]F[dE][dK]-OH; linker I:9-II:9 via Diglycolyl; linker I:N-I:6, II:N-II:6 via X1) showed a half-life in data set [2] of over 3 h.

`CC(C)C[C@@H]1NC(=O)[C@H]([C@@H](C)O)NC(=O)[C@H](CC(=O)O)NC(=O)[C@H](CO)NC(=O)[C@H](CCCNC(=N)N)N(C)C(=O)c2ccccc2CSC[C@@H](C(=O)N2Cc3ccccc3C[C@H]2C(=O)N[C@H](CCC(=O)O)C(=O)N[C@H](CCCCNC(=O)COCC(=O)NCCCC[C@@H](NC(=O)[C@@H](CCC(=O)O)NC(=O)[C@@H]2Cc3ccccc3CN2C(=O)[C@@H]2CSCc3ccccc3C(=O)N(C)[C@@H](CCCNC(=N)N)C(=O)N[C@@H](CO)C(=O)N[C@@H](CC(=O)O)C(=O)N[C@@H]([C@@H](C)O)C(=O)N[C@@H](CC(C)C)C(=O)N2)C(=O)O)C(=O)O)NC1=O` [compound 207] (I: [NMeR]SDTLC[Tic][dE][dK]-OH / II: [NMeR]SDTLC[Tic][dE][dK]-OH; linker I:9-II:9 via Diglycolyl; linker I:N-I:6, II:N-II:6 via X1) gave a half-life in data set [2] of over 3 h.

In turn, `CC(C)C[C@@H]1NC(=O)[C@H]([C@@H](C)O)NC(=O)[C@H](CC(=O)O)NC(=O)[C@H](CO)NC(=O)[C@H](CCCNC(=N)N)N(C)C(=O)c2ccccc2CSC(C)(C)[C@@H](C(=O)N[C@@H](Cc2ccc(-c3ccccc3)cc2)C(=O)N[C@H](CCC(=O)O)C(=O)N[C@H](CCCCNC(=O)COCC(=O)NCCCC[C@@H](NC(=O)[C@@H](CCC(=O)O)NC(=O)[C@H](Cc2ccc(-c3ccccc3)cc2)NC(=O)[C@H]2NC(=O)[C@H](CC(C)C)NC(=O)[C@H]([C@@H](C)O)NC(=O)[C@H](CC(=O)O)NC(=O)[C@H](CO)NC(=O)[C@H](CCCNC(=N)N)N(C)C(=O)c3ccccc3CSC2(C)C)C(=O)O)C(=O)O)NC1=O` [compound 208] (I: [NMeR]SDTL[Pen][Bip][dE][dK]-OH / II: [NMeR]SDTL[Pen][Bip][dE][dK]-OH; linker I:9-II:9 via Diglycolyl; linker I:N-I:6, II:N-II:6 via X1) returned a half-life in data set [2] of over 3 h.
